The source made the active and inactive calls. No cut-off for these calls is given here.
How the values were obtained:
A549 [1] = test: Induction of apoptosis in human A549 cells assessed as viable cells at 1.8 uM measured by annexinV-FITC/propidium iodide staining based flow cytometry analysis (reference value: 97.8%); assay type: functional; conditions: read-out: Activity
A549 [2] = test: Cytotoxicity against human A549 cells assessed as inhibition of cell growth at 20 uM measured after 72 hrs by MTT assay relative to control; assay type: functional
[3] = target: T1, Nuclear factor NF-kappa-B complex (Homo sapiens) (UniProt Q00653+P19838+Q04206); test: Inhibition of human NF-kB in human A549 cells assessed as suppression of TNF-alpha induced IkBalpha expression at 0.5 to 5 uM pretreated with compounds for 24 hrs followed by TNF-alpha stimulation for 10 mins by Western blot analysis; assay type: cell-based; conditions: dose 0.5-5 µM, time 1450.0 min
T1 sequence (P19838 whole entry, looked up): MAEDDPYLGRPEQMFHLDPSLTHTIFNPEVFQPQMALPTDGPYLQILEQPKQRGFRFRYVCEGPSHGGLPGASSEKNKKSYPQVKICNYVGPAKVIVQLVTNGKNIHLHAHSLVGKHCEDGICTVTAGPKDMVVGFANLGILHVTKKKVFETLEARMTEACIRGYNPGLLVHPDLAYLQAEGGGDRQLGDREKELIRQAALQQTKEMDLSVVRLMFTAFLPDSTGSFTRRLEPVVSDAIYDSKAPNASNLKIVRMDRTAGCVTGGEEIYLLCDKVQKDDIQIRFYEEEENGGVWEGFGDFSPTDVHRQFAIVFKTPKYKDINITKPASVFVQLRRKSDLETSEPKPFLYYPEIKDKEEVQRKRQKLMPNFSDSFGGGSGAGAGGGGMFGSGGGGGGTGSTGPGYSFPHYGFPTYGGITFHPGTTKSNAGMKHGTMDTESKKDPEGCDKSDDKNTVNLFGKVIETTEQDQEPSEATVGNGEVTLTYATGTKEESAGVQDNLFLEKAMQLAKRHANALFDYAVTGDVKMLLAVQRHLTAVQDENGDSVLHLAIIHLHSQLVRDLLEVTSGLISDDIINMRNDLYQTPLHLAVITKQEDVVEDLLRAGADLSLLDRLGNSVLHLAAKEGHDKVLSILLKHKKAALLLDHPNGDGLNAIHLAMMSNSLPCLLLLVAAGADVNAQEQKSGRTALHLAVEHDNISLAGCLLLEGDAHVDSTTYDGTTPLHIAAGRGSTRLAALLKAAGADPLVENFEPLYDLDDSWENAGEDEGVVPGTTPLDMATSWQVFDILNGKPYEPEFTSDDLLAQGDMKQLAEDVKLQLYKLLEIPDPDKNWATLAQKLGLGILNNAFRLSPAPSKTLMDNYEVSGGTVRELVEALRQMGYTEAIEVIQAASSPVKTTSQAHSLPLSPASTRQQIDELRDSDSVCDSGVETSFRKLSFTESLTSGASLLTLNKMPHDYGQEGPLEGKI
T1 sequence (Q00653 whole entry, looked up): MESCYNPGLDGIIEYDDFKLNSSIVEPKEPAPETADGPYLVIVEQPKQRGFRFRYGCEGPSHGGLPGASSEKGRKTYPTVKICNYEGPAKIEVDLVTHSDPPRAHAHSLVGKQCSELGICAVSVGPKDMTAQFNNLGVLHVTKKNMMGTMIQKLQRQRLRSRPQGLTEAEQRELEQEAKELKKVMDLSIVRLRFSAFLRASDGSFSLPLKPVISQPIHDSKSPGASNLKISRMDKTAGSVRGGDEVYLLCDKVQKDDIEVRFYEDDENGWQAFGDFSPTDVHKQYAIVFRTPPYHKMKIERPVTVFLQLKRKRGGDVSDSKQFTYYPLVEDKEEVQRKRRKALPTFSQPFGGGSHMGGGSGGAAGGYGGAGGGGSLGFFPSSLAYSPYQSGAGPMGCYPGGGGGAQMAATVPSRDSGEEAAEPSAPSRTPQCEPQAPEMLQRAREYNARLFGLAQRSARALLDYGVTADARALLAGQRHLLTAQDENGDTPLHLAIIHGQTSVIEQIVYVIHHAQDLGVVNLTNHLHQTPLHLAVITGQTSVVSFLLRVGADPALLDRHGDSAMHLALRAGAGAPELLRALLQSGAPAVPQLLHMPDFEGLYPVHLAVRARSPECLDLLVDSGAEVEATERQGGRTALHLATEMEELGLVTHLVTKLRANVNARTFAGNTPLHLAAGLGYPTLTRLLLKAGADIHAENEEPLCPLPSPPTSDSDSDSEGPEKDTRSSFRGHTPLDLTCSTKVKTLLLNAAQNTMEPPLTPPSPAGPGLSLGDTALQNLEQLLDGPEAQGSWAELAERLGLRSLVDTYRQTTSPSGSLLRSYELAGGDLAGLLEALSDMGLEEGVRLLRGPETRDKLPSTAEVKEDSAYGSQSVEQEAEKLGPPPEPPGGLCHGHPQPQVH
T1 sequence (Q04206 whole entry, looked up): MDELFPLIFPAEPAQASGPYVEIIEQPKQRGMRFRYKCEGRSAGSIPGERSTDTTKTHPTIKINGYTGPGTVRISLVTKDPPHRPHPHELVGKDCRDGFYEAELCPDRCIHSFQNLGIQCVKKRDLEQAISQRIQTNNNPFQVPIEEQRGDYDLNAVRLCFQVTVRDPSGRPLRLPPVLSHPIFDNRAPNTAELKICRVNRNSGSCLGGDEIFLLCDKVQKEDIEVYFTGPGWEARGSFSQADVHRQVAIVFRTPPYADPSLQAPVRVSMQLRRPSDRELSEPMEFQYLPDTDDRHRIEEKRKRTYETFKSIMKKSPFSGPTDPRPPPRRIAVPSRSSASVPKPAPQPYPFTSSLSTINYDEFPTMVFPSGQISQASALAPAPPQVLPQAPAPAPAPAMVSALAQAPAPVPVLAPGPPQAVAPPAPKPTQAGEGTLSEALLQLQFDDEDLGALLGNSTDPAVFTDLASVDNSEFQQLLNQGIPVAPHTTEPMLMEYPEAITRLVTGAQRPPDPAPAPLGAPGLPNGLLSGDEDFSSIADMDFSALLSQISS

HCT-116 [4] = test: Cytotoxicity against human HCT-116 cells assessed as inhibition of cell growth measured after 72 hrs by MTT assay; assay type: functional, cell-based; conditions: HCT-116, 72 h
A549 [5] = test: Cell cycle arrest in human A549 cells assessed as accumulation at G0/G1 phase at 0.6 uM measured after 24 hrs by PI staining based Flow cytometry method (reference value: 55.54%); assay type: functional
A549 [6] = test: Induction of apoptosis in human A549 cells assessed as late apoptotic cells at 0.6 uM measured by annexinV-FITC/propidium iodide staining based flow cytometry analysis (reference value: 0.64%); assay type: functional
[7] = target: T1, Nuclear factor NF-kappa-B complex (Homo sapiens); test: Inhibition of human NF-kB in human A549 cells assessed as suppression of TNF-alpha induced IkBalpha phosphorylation at 0.5 to 5 uM pretreated with compounds for 24 hrs followed by TNF-alpha stimulation for 10 mins by Western blot analysis; assay type: cell-based; conditions: dose 0.5-5 µM, time 1450.0 min
A549 [8] = test: Induction of apoptosis in human A549 cells assessed as early apoptotic cells at 1.8 uM measured by annexinV-FITC/propidium iodide staining based flow cytometry analysis (reference value: 1.17%); assay type: functional
A549 [9] = test: Induction of apoptosis in human A549 cells assessed as late apoptotic cells at 1.2 uM measured by annexinV-FITC/propidium iodide staining based flow cytometry analysis (reference value: 0.64%); assay type: functional
A549 [10] = test: Induction of apoptosis in human A549 cells assessed as late apoptotic cells at 1.8 uM measured by annexinV-FITC/propidium iodide staining based flow cytometry analysis (reference value: 0.64%); assay type: functional
A549 [11] = test: Cell cycle arrest in human A549 cells assessed as accumulation at G2/M phase at 1.2 uM measured after 24 hrs by PI staining based Flow cytometry method (reference value: 10.2%); assay type: functional
A549 [12] = test: Cell cycle arrest in human A549 cells assessed as accumulation at S phase at 0.6 uM measured after 24 hrs by PI staining based Flow cytometry method (reference value: 34.24%); assay type: functional
[13] = target: T1, Nuclear factor NF-kappa-B complex (Homo sapiens); test: Inhibition of human NF-kB in human A549 cells assessed as suppression of TNF-alpha induced p-65 expression at 0.5 to 5 uM pretreated with compounds for 24 hrs followed by TNF-alpha stimulation for 10 mins by Western blot analysis; assay type: cell-based; conditions: dose 0.5-5 µM, time 1450.0 min
[14] = target: T1, Nuclear factor NF-kappa-B complex (Homo sapiens); test: Inhibition of human NF-kB in human HCT-116 cells assessed as suppression of TNF-alpha induced IkBalpha expression at 0.5 to 5 uM pretreated with compounds for 24 hrs followed by TNF-alpha stimulation for 10 mins by Western blot analysis; assay type: cell-based; conditions: dose 0.5-5 µM, time 1450.0 min
[15] = target: T1, Nuclear factor NF-kappa-B complex (Homo sapiens); test: Inhibition of human NF-kB in human HCT-116 cells assessed as suppression of TNF-alpha induced TAK1 expression at 0.5 to 5 uM pretreated with compounds for 24 hrs followed by TNF-alpha stimulation for 10 mins by Western blot analysis; assay type: cell-based; conditions: dose 0.5-5 µM, time 1450.0 min
A549 [16] = test: Induction of apoptosis in human A549 cells assessed as necrotic cells at 0.6 uM measured by annexinV-FITC/propidium iodide staining based flow cytometry analysis (reference value: 0.42%); assay type: functional
A549 [17] = test: Cell cycle arrest in human A549 cells assessed as accumulation at G0/G1 phase at 1.2 uM measured after 24 hrs by PI staining based Flow cytometry method (reference value: 55.54%); assay type: functional
A549 [18] = test: Induction of apoptosis in human A549 cells assessed as necrotic cells at 1.2 uM measured by annexinV-FITC/propidium iodide staining based flow cytometry analysis (reference value: 0.42%); assay type: functional
[19] = target: T1, Nuclear factor NF-kappa-B complex (Homo sapiens); test: Inhibition of human NF-kB in human HCT-116 cells assessed as suppression of TNF-alpha induced p-65 expression at 0.5 to 5 uM pretreated with compounds for 24 hrs followed by TNF-alpha stimulation for 10 mins by Western blot analysis; assay type: cell-based; conditions: dose 0.5-5 µM, time 1450.0 min
MDA-MB-231 = test: Cytotoxicity against human MDA-MB-231 cells assessed as inhibition of cell growth at 20 uM measured after 72 hrs by MTT assay relative to control; assay type: functional
A549 [20] = test: Cell cycle arrest in human A549 cells assessed as accumulation at S phase at 1.8 uM measured after 24 hrs by PI staining based Flow cytometry method (reference value: 34.24%); assay type: functional
MAP3K7 = test: Inhibition of human TAK1 in human A549 cells assessed as suppression of TNF-alpha induced TAK1 phosphorylation at 0.5 to 5 uM pretreated with compounds for 24 hrs followed by TNF-alpha stimulation for 10 mins by Western blot analysis; conditions: dose 0.5-5 µM, time 1450.0 min
A549 [21] = test: Induction of apoptosis in human A549 cells assessed as viable cells at 0.6 uM measured by annexinV-FITC/propidium iodide staining based flow cytometry analysis (reference value: 97.8%); assay type: functional; conditions: read-out: Activity
A549 [22] = test: Cell cycle arrest in human A549 cells assessed as accumulation at S phase at 1.2 uM measured after 24 hrs by PI staining based Flow cytometry method (reference value: 34.24%); assay type: functional
[23] = target: T1, Nuclear factor NF-kappa-B complex (Homo sapiens); test: Inhibition of human NF-kB in human HCT-116 cells assessed as suppression of TNF-alpha induced p-65 phosphorylation at 0.5 to 5 uM pretreated with compounds for 24 hrs followed by TNF-alpha stimulation for 10 mins by Western blot analysis; assay type: cell-based; conditions: dose 0.5-5 µM, time 1450.0 min
A549 [24] = test: Cytotoxicity against human A549 cells assessed as inhibition of cell growth measured after 72 hrs by MTT assay; assay type: functional, cell-based; conditions: Homo sapiens, A549, 72 h; read-out: IC50
HCT-116 [25] = test: Induction of apoptosis in human HCT-116 cells assessed as early apoptotic cells at 1.8 uM measured by annexinV-FITC/propidium iodide staining based flow cytometry analysis; assay type: functional
A549 [26] = test: Cell cycle arrest in human A549 cells assessed as accumulation at G2/M phase at 1.8 uM measured after 24 hrs by PI staining based Flow cytometry method (reference value: 10.2%); assay type: functional
TAK1-TAB1 fusion protein = TAK1-TAB1 fusion protein (Homo sapiens, UniProt O43318); test: Inhibition of Tak1/Tab1 (unknown origin) assessed as inhibition of Tak1 kinase activity preincubated for 30 mins followed by addition of MBP protein and ATP and measured after 2 hrs by ADP-Glo kinase assay
Chain of TAK1-TAB1 fusion protein (O43318 whole entry, looked up, the tested form may be a part): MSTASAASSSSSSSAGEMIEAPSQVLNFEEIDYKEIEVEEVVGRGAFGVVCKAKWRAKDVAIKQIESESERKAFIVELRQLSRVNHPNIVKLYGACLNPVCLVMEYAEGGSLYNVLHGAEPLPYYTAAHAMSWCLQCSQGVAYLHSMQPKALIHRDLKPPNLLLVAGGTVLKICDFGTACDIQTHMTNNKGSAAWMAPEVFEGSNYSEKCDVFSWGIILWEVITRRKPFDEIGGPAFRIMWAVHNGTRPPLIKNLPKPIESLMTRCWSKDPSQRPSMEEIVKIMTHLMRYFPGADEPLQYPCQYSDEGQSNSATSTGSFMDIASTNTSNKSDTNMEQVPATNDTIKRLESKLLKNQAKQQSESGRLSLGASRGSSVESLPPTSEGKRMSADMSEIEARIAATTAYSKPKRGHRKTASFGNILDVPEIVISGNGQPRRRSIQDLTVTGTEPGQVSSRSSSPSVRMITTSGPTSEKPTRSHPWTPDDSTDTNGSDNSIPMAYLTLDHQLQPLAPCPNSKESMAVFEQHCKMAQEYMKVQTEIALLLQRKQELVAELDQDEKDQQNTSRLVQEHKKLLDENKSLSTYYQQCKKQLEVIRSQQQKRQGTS

A549 [27] = test: Induction of apoptosis in human A549 cells assessed as early apoptotic cells at 1.2 uM measured by annexinV-FITC/propidium iodide staining based flow cytometry analysis (reference value: 1.17%); assay type: functional
HCT-116 [28] = test: Cytotoxicity against human HCT-116 cells assessed as inhibition of cell growth at 20 uM measured after 72 hrs by MTT assay relative to control; assay type: functional
A549 [29] = test: Cell cycle arrest in human A549 cells assessed as accumulation at G2/M phase at 0.6 uM measured after 24 hrs by PI staining based Flow cytometry method (reference value: 10.2%); assay type: functional

inhibition [3]: Active
inhibition [7]: Active
inhibition [13]: Active
inhibition [14]: Active
inhibition [15]: Active
inhibition [19]: Active
inhibition (MAP3K7): Active
inhibition [23]: Active
IC50 (TAK1-TAB1 fusion protein): 0.58 µM
SMILES: CNC(=O)c1cc(Oc2ccc(Nc3nccc(N4CCCCC4)n3)cc2)ccn1
viability at 1.8 µM (A549 [1]): 64.4%
inhibition at 20 µM (A549 [2]): 63.4%
IC50 (HCT-116 [4]): 0.54 µM
Activity (A549 [5]): 60.53%
Activity (A549 [6]): 3.46%
Activity (A549 [8]): 25.4%
Activity (A549 [9]): 5.7%
Activity (A549 [10]): 9.54%
Activity (A549 [11]): 23.68%
Activity (A549 [12]): 23.56%
Activity (A549 [16]): 0.75%
Activity (A549 [17]): 57.49%
Activity (A549 [18]): 0.74%
inhibition at 20 µM (MDA-MB-231): 52.3%
Activity (A549 [20]): 16.65%
viability at 0.6 µM (A549 [21]): 87.6%
Activity (A549 [22]): 18.83%
IC50 (A549 [24]): 0.89 µM
Activity (HCT-116 [25]): 71.4%
Activity (A549 [26]): 30.57%
Activity (A549 [27]): 12.9%
inhibition at 20 µM (HCT-116 [28]): 69.8%
Activity (A549 [29]): 15.91%

From ChEMBL document CHEMBL4831488, “Design, synthesis, docking, molecular dynamics and bioevaluation studies on novel N-methylpicolinamide and thienopyrimidine derivatives with inhibiting NF-κB and TAK1 activities: Cheminformatics tools RDKit applied in drug design” (Eur J Med Chem, 2021)
